This experiment has as its system ill-health symptoms of Lead intoxication. Nature of the experiment: Inventor's trial-and-error self-administration of vitamins to alleviate Lead intoxication symptoms. The format is in vivo, human. Conditions: for soothing of Lead intoxication symptoms: Beta Carotene around 20,000 I.U. and vitamin E around 100 I.U. in the formula, Lead intoxication with no other health conditions. An excerpt:
I was already taking vitamins, so I started working with variety of vitamins in varying doses to alleviate the suffering. This was like an experiment on my body to find a balanced dose to alleviate Lead intoxication symptoms. It took me one and half decade to find the correct mix and proportion of vitamins. I will explain later why it took me so many years.
Vitamins dose was working correctly, however, I was taking certain quantity of milk (Calcium) in my diet so dose was adjusted with certain quantity of milk also. […] However, most of the symptoms as described earlier were alleviated with vitamins. In 2001, dizziness was extreme and glucose test was very close to borderline. Additional symptoms like some weight gain, elevated blood pressure and elevated cholesterol were noted. I realized immediately that I have done something wrong in working out the vitamin dose for Lead intoxication so I reversed engineering to figure out the dose with less quantity of milk. In 2005-2006 timeframe, I started gaining confidence that vitamin dose to cure Lead intoxication is absolutely correct and I decided to file the patent papers. […] I wish I could have this dose in 1990 then I didn't have to go through all the suffering and pain from 1990-2005, almost fifteen years. Therefore the vitamin dose or multi-vitamin formula for Lead intoxication is determined by trial and error method and is the result of fifteen years of work. Sometimes God makes the things happen for purpose and I was chosen the vehicle.
All these symptoms depend upon the amount of lead in body and the kind of diet and vitamins I was taking. I went through lot of ups and downs in figuring out the vitamin dose or formula to cure Lead induced ill-health symptoms. I gained so much experience by working trial and error methods on vitamins that I could simulate most of these symptoms in my body. […] I have shown this formula below as OM-50 dose, primarily because some vitamins' quantities are in 50 unit. Multiply all the ingredients by 2 will give OM-100, and divide by 2 will give OM-25, and so on.

The source of these data is patent US9308223B2, “Om vitamin formula” (priority 2008, dated 2016).

As for vitamin E, the “soothing of Lead intoxication symptoms” value is recorded as “soothe very effectively”.

`CC1=C(/C=C/C(C)=C/C=C/C(C)=C/C=C/C=C(C)/C=C/C=C(C)/C=C/C2=C(C)CCCC2(C)C)C(C)(C)CCC1` [Beta Carotene]: the “soothing of Lead intoxication symptoms” value is listed as “soothe very effectively”. For the same compound, the “effectiveness during heavy bleeding and/or elevated sugar level” value (Beta Carotene 30,000 I.U. in the formula, Lead intoxication plus heavy bleeding and/or elevated sugar level) is recorded as “very effective”.
